Laboratory results taken from patent US20210128735A1, “BIOCOMPATIBLE COPOLYMER CONTAINING MULTIPLE ACTIVE AGENT MOLECULES” (priority 2018, published 2021).
Where two headings read alike, the source gives them in different places.

Tested on: HepG2 cells
Assay: Exploratory toxicity: eight cell health parameters (CHP) by automated fluorescent cellular imaging (ArrayScan)
Type: cell-based
Details: for MTD (row Cell count): concentration at which <20% cell loss was observed; for AC50: Homo sapiens
Method: The polymeric carriers of this disclosure are not biodegradable. […] An exploratory toxicity study of a polymeric carrier of the present disclosure (without payload) was performed. Briefly, HepG2 cells were plated on 96-well black walled, clear bottomed polystyrene plates at 100 μL per well. Test compound was a H2N-G3-Cellophil copolymer (12 kDa) containing DMA and AK (90/10 mol %) that was prepared by the procedure described in example 13, step 7. The HepG2 cells were dosed with test compound at concentrations from 0.04 to 100 μM. At the end of 72-h incubation at 37° C., appropriate dies or antibodies were added to the cultures. The plates were then scanned using an automated fluorescent cellular imager (ArrayScan®, Thermo Scientific Cellomics).
The following eight cell health parameters (CHP) were evaluated:
Cell count: A decreasing number of cells per well indicates toxicity due to necrosis, apoptosis or a reduction in cellular proliferation. Nuclear size: An increase in nuclear area can indicate necrosis or G2 cell cycle arrest, and a decrease can indicate apoptosis. DNA structure: An increase in DNA structure can indicate chromosomal instability and DNA fragmentation. Mitochondrial mass: A decrease in mitochondrial mass indicates loss of total mitochondria and an increase implies mitochondrial swelling or an adaptive response to cellular energy demands. Mitochondrial membrane potential (Δψm): A decrease indicates a loss of mitochondrial integrity, typically resulting in apoptotic signaling; an increase in mitochondrial membrane potential indicates an adaptive response to cellular energy demands. Oxidative stress: An increase in reactive oxygen species (ROS) is an early cytotoxic response. Glutathione content: A decrease in glutathione (GSH) content can result from production of ROS or from direct binding to tested compound. An increase in GSH content represents an adaptive cellular response to oxidative stress. Cellular ATP: After cell lysis, ATP is released from the cell. Cells which are not metabolically active will not release any ATP. Therefore, a decrease in metabolically active cells will result in a decrease in the level of ATP detected.

[1] = HepG2, 72-h incubation, NR = no response

Row | Compound | MEC, Cell count (HepG2, 72-h incubation at 37° C., 0.04 to 100 μM, MEC = lowest dose at which an effect is detected, NR = no response) | MEC, Cellular ATP [1] | MEC, Nuclear size [1] | MEC, Oxidative stress [1] | MEC, DNA structure (HepG2, 72-h incubation, NR = no response, NS = not statistical significant) | MTD (row Cell count) [1] | AC50 (HepG2, 72-h incubation, NR = no response, NS = not statistical significant, read-out: AC50, DNA structure) | AC50 (HepG2, 72-h incubation, NR = no response, read-out: AC50, Cellular ATP) | AC50 (HepG2, 72-h incubation, NR = no response, read-out: AC50, Glutathione content) | AC50 (HepG2, 72-h incubation, NR = no response, read-out: AC50, Mitochondrial mass) | AC50 (HepG2, 72-h incubation, NR = no response, read-out: AC50, Mitochondrial membrane potential) | AC50 (HepG2, 72-h incubation, NR = no response, read-out: AC50, Nuclear size) | AC50 (HepG2, 72-h incubation, NR = no response, read-out: AC50, Oxidative stress) | AC50 (HepG2, 72-h incubation, concentration at which 50% of the maximum effect is observed, NR = no response, read-out: AC50, Cell count) | MEC, Cellular ATP | MEC, Glutathione content
1 | N#CC(C#N)=NNc1cccc(Cl)c1 [control 1, carbonyl cyanide 3-chlorophenylhydrazone] | 1.73 µM | 3.13 µM | 3.76 µM | 0.539 µM | 0.63 µM | 2 µM | 46.7 µM | 4.15 µM | > 100 µM | > 100 µM | > 100 µM | 8.09 µM | 22.4 µM | 2.54 µM | – | –
2 | CCCCS(=N)(=O)CCC(N)C(=O)O [control 2, L-buthionine-sulfoximine] | – | – | – | – | – | 40 µM | – | – | – | – | – | – | – | – | 14.4 µM | 1.7 µM
